Assay results as given in patent US6114334A, “Piperazine derivatives as therapeutic agents” (Knoll Aktiengesellschaft, priority 1995, dated 2000).
Structures can show the parent of a compound that is named as a salt. Where two headings read alike, the source gives them in different places.

What was measured:
[1] = target: T1, 5-HT1A receptors (Rattus norvegicus, UniProt P19327); assay: inhibition of [3H]8-OH-DPAT binding to 5-HT1A receptors in vitro; parameters: species or system rat (male Sprague-Dawley, hippocampal tissue); settings: for inhibition at 1 µM: read-out: % displacement at 10^-6 M, 5-HT1A; for Ki: [3H]8-OH-DPAT 2 nM, 25° C., 30 min
T1 sequence (P19327 1-422): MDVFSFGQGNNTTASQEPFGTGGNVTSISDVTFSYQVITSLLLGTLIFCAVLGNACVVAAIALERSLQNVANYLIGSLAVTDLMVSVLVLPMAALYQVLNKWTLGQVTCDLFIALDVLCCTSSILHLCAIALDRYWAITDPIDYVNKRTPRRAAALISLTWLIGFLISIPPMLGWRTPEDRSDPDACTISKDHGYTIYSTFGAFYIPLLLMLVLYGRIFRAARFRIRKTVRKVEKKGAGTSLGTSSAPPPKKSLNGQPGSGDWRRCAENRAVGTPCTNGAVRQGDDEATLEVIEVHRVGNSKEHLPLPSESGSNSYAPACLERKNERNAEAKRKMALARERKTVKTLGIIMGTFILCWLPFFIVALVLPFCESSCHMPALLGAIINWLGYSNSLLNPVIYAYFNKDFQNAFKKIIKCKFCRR

[2] = target: T2, α2D-adrenoceptors (Rattus norvegicus, UniProt P22909); assay: inhibition of tritiated idazoxan binding to α2D-adrenoceptors in vitro; parameters: species or system rat (male Charles River CD, frontal cortical tissue); settings: rat frontal cortex; for inhibition at 1 µM: 10^-6 M, [3H]idazoxan, read-out: % displacement at 10^-6 M, α2D; for Ki: [3H]idazoxan 1 nM, 0° C., 75 min
T2 sequence (P22909 1-465): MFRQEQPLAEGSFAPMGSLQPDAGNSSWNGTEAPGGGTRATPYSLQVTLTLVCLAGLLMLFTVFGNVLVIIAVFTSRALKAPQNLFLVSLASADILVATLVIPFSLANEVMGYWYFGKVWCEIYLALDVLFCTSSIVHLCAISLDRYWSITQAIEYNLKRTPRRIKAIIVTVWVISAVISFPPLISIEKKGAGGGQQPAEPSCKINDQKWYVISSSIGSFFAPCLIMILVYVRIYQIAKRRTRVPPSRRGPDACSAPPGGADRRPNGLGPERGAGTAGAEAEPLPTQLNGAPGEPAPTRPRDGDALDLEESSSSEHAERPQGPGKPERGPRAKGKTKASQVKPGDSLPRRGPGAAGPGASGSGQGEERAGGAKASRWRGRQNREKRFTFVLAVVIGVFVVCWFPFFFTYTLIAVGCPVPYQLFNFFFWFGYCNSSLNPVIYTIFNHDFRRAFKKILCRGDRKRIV

[3] = target: α1-adrenoceptors; assay: inhibition of 7-methoxy-[3H]prazosin binding to α1-adrenoceptors in vitro; parameters: species or system rat (male Charles River CD, whole cortical tissue); settings: rat whole cortex, 30 min; for Ki: 7-methoxy-[3H]prazosin 0.1 nM, 30° C.; for % displacement at 10^-6 M, α1: 7-methoxy-[3H]prazosin, 1 µM
Experimental: Whole cortical tissue from the brains of male Charles River CD rats weighing between 150-250 g were homogenised in ice-cold 50 mM Tris-HCl, pH 7.6 (at 25° C.; 1:40 w/v) and centrifuged at 1000 g at 4° C. for 10 minutes. The supernatant was centrifuged at 30,000 g at 4° C. for 10 minutes. The pellet was rehomogenised in 50 mM Tris-HCl, pH 7.6 (1:40 w/v) and centrifuged at 30,000 g at 4° C. for 10 minutes. The final pellet was resuspended in 50 mM Tris-HCl, pH 7.6 (equivalent to 12.5 mg wet weight of tissue/ml) and used immediately in the binding assay. Aliquots (400 μl; equivalent to 5 mg wet weight of tissue/tube) of this suspension were added to tubes containing the ligand (50 μl; 0.1 nM) and distilled water (50 μl; total binding) or phentolamine (50 μl; 5 μM; non-specific binding) or test compound (50 μl; at a single concentration of 10^-6 M or at 10 concentrations ranging from 10^-11 -10^-3 M). The ligand was 7-methoxy-[^3 H]prazosin and the mixture was incubated at 30° C. for 30 minutes before the incubation was terminated by rapid filtration. The filters were washed with ice-cold Tris-HCl buffer and dried. The filters were punched out into vials, scintillation fluid added and radioactivity determined by liquid scintillation counting. The percentage displacement of specific binding of the tritiated ligand was calculated for the single concentration (10^-6 M) of test compound. […] The concentration which gave 50% inhibition of specific binding (IC50) was obtained from the curve. The inhibition coefficient Ki was then calculated using the formula [formula] in which [ligand] is the concentration of the tritiated ligand used and KD is the equilibrium dissociation constant for the ligand.

[4] = target: D2 dopamine receptors (Rattus norvegicus, UniProt P61169); assay: inhibition of tritiated (S)-sulpiride binding to D2 dopamine receptors in vitro; parameters: species or system rat (male Charles River CD, striatal tissue); settings: rat striatum, tritiated (S)-sulpiride 1 nM, 4° C., 40 min
[5] = 10^-6 M, rat hippocampus, [3H]8-OH-DPAT

Chain of D2 dopamine receptors (P61169 whole entry): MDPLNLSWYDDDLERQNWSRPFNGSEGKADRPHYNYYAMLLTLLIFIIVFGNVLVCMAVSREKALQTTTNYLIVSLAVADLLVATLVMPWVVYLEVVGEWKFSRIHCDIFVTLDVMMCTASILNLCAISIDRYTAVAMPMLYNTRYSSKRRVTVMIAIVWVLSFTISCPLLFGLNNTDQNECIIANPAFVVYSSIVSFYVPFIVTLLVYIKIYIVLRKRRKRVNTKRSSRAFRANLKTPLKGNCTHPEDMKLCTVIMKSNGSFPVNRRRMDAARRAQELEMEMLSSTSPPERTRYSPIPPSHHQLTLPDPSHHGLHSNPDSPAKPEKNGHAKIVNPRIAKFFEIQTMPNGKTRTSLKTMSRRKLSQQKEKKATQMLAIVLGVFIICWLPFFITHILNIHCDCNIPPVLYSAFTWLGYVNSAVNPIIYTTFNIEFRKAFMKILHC

SMILES	inhibition at 1 µM [1, 5]	inhibition at 1 µM [2]	Ki [3]	Ki [4]	% displacement at 10^-6 M, α1 [3]	Ki [2]	inhibition at 1 µM [1]	Ki ([1]; rat hippocampus)
C=CCn1c(-c2cccnc2)nn(CN2CCN(c3cccc(C)c3C)CC2)c1=S [Example 61, 4-Allyl-2-[4-(2,3-dimethylphenyl)piperazin-1-ylmethyl]-5-(3-pyridyl)-1,2,4-triazole-3(2H,4H)-thione]	52%	52%	> 500 nM	> 500 nM				
C=CCn1c(-c2ccc(Cl)cc2)nn(CN2CCN(c3ccccc3OC)CC2)c1=S [Example 62, 4-Allyl-5-(4-chlorophenyl)-2-[4-(2-methoxyphenyl)piperazin-1-ylmethyl]-1,2,4-triazole-3(2H,4H)-thione]	77%	68%		201 nM	59%			
C=CCn1c(-c2cccnc2)nn(CN2CCN(c3ccccc3OC)CC2)c1=O [Example 63, 4-Allyl-2-[4-(2-methoxyphenyl)piperazin-1-ylmethyl]-5-(3-pyridyl)-1,2,4-triazol-3(2H,4H)-one]	74%	66%	> 500 nM	193 nM				
C=CCn1c(-c2cccnc2)nn(CCCCN2CCN(c3cccc(C)c3C)CC2)c1=O [Example 64, 4-Allyl-2-{4-[4-(2,3-dimethylphenyl)piperazin-1-yl]butyl}-5-(3-pyridyl)-1,2,4-triazol-3(2H,4H)-one 1.5 maleate]	90%	84%		93 nM	98%			
C=CCn1c(-c2cccnc2)nn(CCN2CCN(c3cccc(C)c3C)CC2)c1=O [Example 65, 4-Allyl-2-{2-[4-(2,3-dimethylphenyl)piperazin-1-yl]ethyl}-5-(3-pyridyl)-1,2,4-triazol-3(2H,4H)-one 2.8 hydrochloride]	63%			> 500 nM	56%	> 500 nM		
C=CCn1c(-c2ccccc2)nn(CCCCN2CCN(c3ccccc3OC)CC2)c1=O.Cl.Cl [Example 66, 4-Allyl-2-{4-[4-(2-methoxyphenyl)piperazin-1-yl]butyl}-5-phenyl-1,2,4-triazol-3(2H,4H)-one dihydrochloride]				169 nM	99%	> 500 nM	92%	
C=CCn1c(-c2cccnc2)nn(CCN2CCN(c3ccccc3OC)CC2)c1=O.Cl.Cl [Example 67, 4-Allyl-2-{2-[4-(2-methoxyphenyl)piperazin-1-yl]ethyl}-5-(3-pyridyl)-1,2,4-triazol-3(2H,4H)-one dihydrochloride]				> 500 nM	78%	> 500 nM	52%	
C=CCn1c(-c2ccccc2)nn(CCN2CCN(c3ccccc3OC)CC2)c1=O.O=C(O)/C=C/C(=O)O [Example 68, 4-Allyl-2-{2-[4-(2-methoxyphenyl)piperazin-1-yl]ethyl}-5-phenyl-1,2,4-triazol-3(2H,4H)-one monofumarate]	56%			> 500 nM	67%	> 500 nM		
C=CCn1c(-c2cccs2)nn(CCN2CCN(c3ccccc3OC)CC2)c1=O [Example 69, 4-Allyl-2-{2-[4-(2-methoxyphenyl)piperazin-1-yl]ethyl}-5-(2-thienyl)-1,2,4-triazol-3(2H,4H)-one]	70%			> 500 nM	93%	> 500 nM		
C=CCn1c(C)nn(CCN2CCN(c3ccccc3OC)CC2)c1=O [Example 70, 4-Allyl-2-{2-[4-(2-methoxyphenyl)piperazin-1-yl]ethyl}-5-methyl-1,2,4-triazol-3(2H,4H)-one]	69%			310 nM	64%	> 500 nM		
C=CCn1c(-c2cccnc2)nn(CCN2CCN(c3ccccc3C)CC2)c1=O [Example 71, 4-Allyl-2-{2-[4-(2-methylphenyl)piperazin-1-yl]ethyl}-5-(3-pyridyl)-1,2,4-triazol-3(2H,4H)-one]				> 500 nM	56%	> 500 nM		> 500 nM
C=CCn1c(-c2cccnc2)nn(CCCN2CCN(c3ccccc3OC)CC2)c1=O.Cl.Cl.Cl [Example 72, 4-Allyl-2-{3-[4-(2-methoxyphenyl)piperazin-1-yl]propyl}-5-(3-pyridyl)-1,2,4-triazol-3(2H,4H)-one trihydrochloride]				> 500 nM	91%	> 500 nM		> 500 nM
